The source made the active and inactive calls. The calls are words filed in the database; no cut-off is given here.
How the values were obtained:
Human alphaherpesvirus 1 [1] = assay: Antiviral activity against Human herpesvirus 1 MacIntyre infected in A549 cells assessed as reduction in virus titer preincubated for 24 hrs followed by viral infection and measured after 72 hrs by microscopic analysis; type: functional, organism-based
MDCK = assay: Cytotoxicity against MDCK cells assessed as reduction in cell viability incubated for 72 hrs by MTT assay; type: cell-based, Canis lupus familiaris; settings: dog, mdck, 72 h
Human adenovirus 5 [2] = assay: Antiviral activity against Human adenovirus 5 Adenoid 75 infected in A549 cells assessed as reduction in virus titer preincubated for 24 hrs followed by viral infection and measured after 72 hrs by microscopic analysis; type: functional, organism-based
Human alphaherpesvirus 1 [3] = assay: Antiviral activity against Human herpesvirus-1 MacIntyre infected in A549 cells assessed as inhibition of viral adsorption at early stage of replication treated for 1 hr during viral infection followed by replacement with fresh medium and measured after 48 hrs by MTT assay; type: functional, organism-based
[4] = test system: Vesicular stomatitis virus; assay: Antiviral activity against Vesicular stomatitis virus Indiana infected in A549 cells assessed as reduction in virus titer preincubated for 24 hrs followed by viral infection and measured after 72 hrs by microscopic analysis; type: functional, organism-based
Enterovirus E = assay: Antiviral activity against Enterovirus E LCR-4 infected in A549 cells assessed as inhibition of viral adsorption at early stage of replication treated for 1 hr during viral infection followed by replacement with fresh medium and measured after 72 hrs by MTT assay; type: functional, organism-based
Human adenovirus 5 [5] = assay: Antiviral activity against Human adenovirus 5 Adenoid 75 infected in A549 cells assessed as inhibition of viral adsorption at early stage of replication treated for 1 hr during viral infection followed by replacement with fresh medium and measured after 72 hrs by MTT assay; type: functional, organism-based
A549 = assay: Cytotoxicity against human A549 cells assessed as reduction in cell viability incubated for 48 hrs by MTT assay; type: cell-based; settings: a549, 48 h

Row | Structure (SMILES) | Activity (Human alphaherpesvirus 1 [1]) | CC20 (MDCK) [µM] | Activity (Human adenovirus 5 [2]) | Activity (Human alphaherpesvirus 1 [3]) | Activity [4] | Activity (Enterovirus E) | Activity (Human adenovirus 5 [5]) | CC20 (A549) [µM]
1 | C#CCNC(=O)CCCC(=O)OC[C@]12CC[C@@H](C(=C)C)[C@@H]1[C@H]1CC[C@@H]3[C@@]4(C)CC[C@H](O)C(C)(C)[C@@H]4CC[C@@]3(C)[C@]1(C)CC2 | inactive | 1.18 | inactive | inactive | inactive | inactive | inactive | 42.09
2 | C=C(C)[C@@H]1CC[C@]2(COC(=O)CCC(=O)N3CCCCC3)CC[C@]3(C)[C@H](CC[C@@H]4[C@@]5(C)CCC(O)C(C)(C)[C@@H]5CC[C@]43C)[C@@H]12 (single isomer, unassigned) | inactive | 17.46 | inactive | inactive | inactive | inactive | inactive | 69.83
3 | C#CCNC(=O)CCCCCCCCCC(=O)OC[C@]12CC[C@@H](C(=C)C)[C@@H]1[C@H]1CC[C@@H]3[C@@]4(C)CC[C@H](O)C(C)(C)[C@@H]4CC[C@@]3(C)[C@]1(C)CC2 | inactive | 153.85 | inactive | inactive | inactive | inactive | inactive | 38.46
4 | C=C(C)[C@@H]1CC[C@]2(COC(=O)c3cccc(C(=O)N4CCOCC4)c3)CC[C@]3(C)[C@H](CC[C@@H]4[C@@]5(C)CC[C@H](O)C(C)(C)[C@@H]5CC[C@]43C)[C@@H]12 | inactive | 143.47 | inactive | inactive | inactive | inactive | inactive | 71.74
5 | C=C(C)[C@@H]1CC[C@]2(COC(=O)CCC(=O)N3CCOCC3)CC[C@]3(C)[C@H](CC[C@@H]4[C@@]5(C)CC[C@H](O)C(C)(C)[C@@H]5CC[C@]43C)[C@@H]12 | inactive | 4.78 | inactive | inactive | inactive | inactive | inactive | 9.63
6 | C=C(C)[C@@H]1CC[C@]2(COC(=O)CCCC(=O)N3CCSCC3)CC[C@]3(C)[C@H](CC[C@@H]4[C@@]5(C)CC[C@H](O)C(C)(C)[C@@H]5CC[C@]43C)[C@@H]12 | inactive | 61.35 | inactive | inactive | inactive | inactive | inactive | 122.7
7 | C=C(C)[C@@H]1CC[C@]2(COC(=O)/C=C(\C)C(=O)N3CCSCC3)CC[C@]3(C)[C@H](CC[C@@H]4[C@@]5(C)CC[C@H](O)C(C)(C)[C@@H]5CC[C@]43C)[C@@H]12 | inactive | 61.5 | inactive | inactive | inactive | inactive | inactive | 61.5
8 | C#CCNC(=O)c1cccc(C(=O)OC[C@]23CC[C@@H](C(=C)C)[C@@H]2[C@H]2CC[C@@H]4C5(C)CC[C@H](O)C(C)(C)[C@@H]5CC[C@@]4(C)[C@]2(C)CC3)c1 (single isomer, unassigned) | inactive | 159.24 | inactive | inactive | inactive | inactive | inactive | 159.24
9 | C=C(C)[C@@H]1CC[C@]2(COC(=O)CCC(=O)O)CC[C@]3(C)[C@H](CC[C@@H]4[C@@]5(C)CCC(O)C(C)(C)[C@@H]5CC[C@]43C)[C@@H]12 (single isomer, unassigned) | inactive | 11.51 | inactive | inactive | inactive | inactive | inactive | 11.51
10 | C=C(C)[C@@H]1CC[C@]2(COC(=O)/C=C(\C)C(=O)O)CC[C@]3(C)[C@H](CC[C@@H]4[C@@]5(C)CC[C@H](O)C(C)(C)[C@@H]5CC[C@]43C)[C@@H]12 | inactive | 5.63 | inactive | inactive | inactive | inactive | inactive | 11.26
11 | C=C(C)[C@@H]1CC[C@]2(COC(=O)CCC(=O)N3CCSCC3)CC[C@]3(C)[C@H](CC[C@@H]4[C@@]5(C)CC[C@H](O)C(C)(C)[C@@H]5CC[C@]43C)[C@@H]12 | inactive | 124.84 | inactive | inactive | inactive | inactive | inactive | 62.42
12 | C#CC1(NC(=O)c2ccccc2C(=O)OC[C@]23CC[C@@H](C(=C)C)[C@@H]2[C@H]2CC[C@@H]4[C@@]5(C)CC[C@H](O)C(C)(C)[C@@H]5CC[C@@]4(C)[C@]2(C)CC3)CCCCC1 | inactive | 1.57 | inactive | inactive | inactive | inactive | inactive | 109.82
13 | C=C(C)[C@@H]1CC[C@]2(CO)CC[C@]3(C)[C@H](CC[C@@H]4[C@@]5(C)CC[C@H](O)C(C)(C)[C@@H]5CC[C@]43C)[C@@H]12 [BETULIN] | inactive | 28.22 | inactive | inactive | inactive | inactive | inactive | 28.22
14 | C=C(C)[C@@H]1CC[C@]2(COC(=O)c3cccc(C(=O)O)c3)CC[C@]3(C)[C@H](CC[C@@H]4[C@@]5(C)CC[C@H](O)C(C)(C)[C@@H]5CC[C@]43C)[C@@H]12 | inactive | 42.3 | inactive | inactive | inactive | inactive | inactive | 21.15
15 | C#CCNC(=O)/C(C)=C/C(=O)OC[C@]12CC[C@@H](C(=C)C)[C@@H]1[C@H]1CC[C@@H]3[C@@]4(C)CC[C@H](O)C(C)(C)[C@@H]4CC[C@@]3(C)[C@]1(C)CC2 | inactive | 84.46 | inactive | inactive | inactive | inactive | inactive | 10.56
16 | Nc1ccn(C[C@@H](CO)OCP(=O)(O)O)c(=O)n1.O.O [CIDOFOVIR] |  |  |  | inactive |  | inactive | inactive | 358.42
